Assay results: article PMC3670040, “Structure of Lipid Kinase p110β/p85β Elucidates an Unusual SH2-Domain-Mediated Inhibitory Mechanism” (Molecular Cell, 2011)
Square brackets hold non-standard residues; d marks the D form. Ends that are not written are not given here. pY = N[C@@H](Cc1ccc(OP(=O)(O)O)cc1)C(=O)O

Test system: p110β/p85β-nicSH2
Assay: [γ32P]-ATP nitrocellulose-binding assay of PIP3 production
Assay type: biochemical, mouse
Description: or absence of 10 μM PDGF bis-phosphopeptide. Reactions were carried out with 1 μCi [γ32P]-ATP per reaction, with 100 μM ATP and 1 mg/ml total “brain lipids” or 1.5 mM diC8-PIP2/POPS vesicles for 60 min. The vesicle compositions are indicated.
(B) Integrated intensities of the spots using the “brain liposomes” (left panel) or diC8-PIP2/POPS liposomes (Invitrogen) (right panel), quantitated with the ImageQuant software.
The bars represent standard deviations of the mean for two measurements. The hatched bars are for reactions in the presence of PDGF bis-phosphopeptide.
(C) SDS PAGE analysis of the proteins used for the assays in (A and B). Samples of 10 μl of […] protein solutions for each of the reaction were analyzed on a 4-12% NuPAGE Novex Bis-Tris gel in MES running buffer (Invitrogen). The upper band is the p110 subunit and the lower band is the regulatory subunit.
(D) Stereo view of the contacts between the p85β-cSH2 domain and the C-lobe of the kinase domain. The Tyr677-p85β (red) inserts into a hydrophobic groove between the two elbows kα7/kα8 (yellow) and kα11/kα12 (orange). Tyr677-p85β also makes a potential hydrogen bond with Ser1046-p110β (dashed black line).
To determine the effect of receptor tyrosine kinases (RTK) on PI3K activity, the assays were performed in absence or presence of 10 μM pY peptides:
7. Mm-PDGFR (pY2): ESDGG(pY)MDMSKDESID(pY)VPMLDMKGDIKYADIE (residues
10. Hs-PDGFR-pY740+5 position 5 mutated to P: DGG(pY)MDMSP
11. Hs-PDGFR-pY740+5 position 5 mutated to A: DGG(pY)MDMSA
12. Hs-PDGFR-pY740+5 position 5 mutated to S: DGG(pY)MDMSS
13. […]
The reactions were stopped by addition of 10 μl of stop/detection buffer (1X Stop & Detect Buffer B, 4 nM ADP Alexa633 Tracer, 109 μg/ml ADP2 antibody), followed by 1 h equilibration. Fluorescence polarization was measured on a PHERAStar plus HTS microplate reader (BMG Labtech), using a fluorescence polarization module with excitation centered at 633 nm and emission at 650 nm. […]
The PIP3 lipids produced in PI3K in vitro assays as described above were also measured by a mass-spectrometry based assay (Clark et al.). […]

- fold activation by pY2, PIP3 formation, brain lipids (p110β/p85β-nicSH2, 10 μM pY2, 1 mg/ml brain lipids (5% PIP2, 20% PS, 15% PC, 45% PE, 5% sphingomyelin, 10% cholesterol), 100 μM ATP, 60 min): 10 fold
- fold activation by pY2, PIP3 formation, diC8-PIP2/POPS liposomes (p110β/p85β-nicSH2, 10 μM pY2, 1.5 mM diC8-PIP2/POPS, 100 μM ATP, 60 min): 16 fold
- effect on lipid kinase activity of p110β SH2-containing complexes, PIP3 formation (radioactive phosphorylation assay, Figures S2A–S2C): stimulates lipid kinase activity
Substance: ESDGG[pY]MDMSKDESID[pY]VPMLDMKGDIKYADIE [pY2, bis-phosphopeptide (PDGFR 735–767, with pY740 and pY751)]
